According to DBAASP:
≈ marks a conversion by molar mass, not a printed value.

How the values were obtained:
Experiment in all cases: ≥ marks a high value that may be exact or a test limit, other limits are often not marked, values filed in µg/mL are converted to µM
[1] = test system: Pseudomonas aeruginosa
[2] = test system: Candida albicans F7-39/IDE99
[3] = test system: Escherichia coli B
[4] = test system: Bacillus subtilis 168
[5] = test system: Staphylococcus aureus 1
[6] = test system: Pseudomonas aeruginosa ATCC 27853
[7] = test system: Staphylococcus aureus
[8] = test system: Micrococcus luteus CCM 144
[9] = test system: Staphylococcus epidermidis
[10] = test system: Staphylococcus aureus ATCC 43300
[11] = test system: Escherichia coli D31
[12] = test system: Streptococcus mutans ATCC 25175
[13] = test system: Escherichia coli ATCC 25922
[14] = test system: Pseudomonas aeruginosa ATCC 15442
[15] = test system: Candida albicans ATCC 10231
[16] = test system: Staphylococcus aureus MR
[17] = test system: Pseudomonas aeruginosa PAO1
[18] = test system: Bacillus subtilis ATCC 6633
[19] = test system: Staphylococcus aureus ATCC 25923
[20] = test system: Escherichia coli SBS 363
[21] = test system: Micrococcus luteus A270
[22] = test system: Candida albicans MDM8
[23] = test system: Bacillus subtilis
[24] = test system: Escherichia coli
[25] = test system: Streptococcus pyogenes
[26] = test system: Proteus vulgaris
[27] = test system: Salmonella typhimurium
[28] = test system: Klebsiella pneumoniae KCTC 2208
[29] = test system: Acinetobacter baumannii KCTC 2508
[30] = test system: Proteus mirabilis

CC[C@H](C)[C@H](NC(=O)CN)C(=O)N[C@@H](CC(C)C)C(=O)N[C@@H](CO)C(=O)N[C@@H](CO)C(=O)N[C@@H](CC(C)C)C(=O)N[C@@H](CC(C)C)C(=O)N[C@@H](CCCCN)C(=O)N[C@@H](CCCCN)C(=O)N[C@@H](Cc1c[nH]c2ccccc12)C(=O)N[C@@H](CCCCN)C(=O)N[C@@H](CCCCN)C(=O)N[C@H](C(=O)N[C@H](C(=O)N[C@@H](C)C(=O)N[C@@H](CCCCN)C(N)=O)[C@@H](C)CC)[C@@H](C)CC [GILSSLLKKWKKIIAK]
MIC [1]: 7.1 µM (≈ 13 µg/mL)
MIC [2]: 11 µM (≈ 20.1 µg/mL)
MIC [3]: 7.5 µM (≈ 13.7 µg/mL)
MIC [4]: 7 µM (≈ 12.8 µg/mL)
MIC [5]: 7.8 µM (≈ 14.2 µg/mL)
MIC [6]: 5 µM (≈ 9.13 µg/mL)
MIC [7]: 20 µM (≈ 36.5 µg/mL)
MIC [8]: 3 µM (≈ 5.48 µg/mL)
MIC [9]: 2.7 µM (≈ 4.93 µg/mL)
MIC [10]: 20 µM (≈ 36.5 µg/mL)

CC[C@H](C)[C@H](NC(=O)[C@H](CCCCN)NC(=O)[C@H](CCC(N)=O)NC(=O)[C@H](CC(C)C)NC(=O)[C@@H](N)Cc1ccccc1)C(=O)N[C@H](C(=O)NCC(=O)N[C@@H](C)C(=O)N[C@@H](CC(C)C)C(=O)NCC(=O)N[C@@H](CCCCN)C(=O)N[C@@H](CC(C)C)C(=O)N[C@@H](Cc1ccccc1)C(N)=O)[C@@H](C)CC [FLQKIIGALGKLF]
MIC [11]: 12.5 µM (≈ 18.1 µg/mL)
MIC [12]: 3.1 µM (≈ 4.49 µg/mL)
MIC [13]: 6.2 µM (≈ 8.97 µg/mL)
MIC [14]: 6.2 µM (≈ 8.97 µg/mL)
MIC [15]: 25 µM (≈ 36.2 µg/mL)
MIC [16]: 6.2 µM (≈ 8.97 µg/mL)
MIC [17]: 12.5 µM (≈ 18.1 µg/mL)
MIC [18]: 12.5 µM (≈ 18.1 µg/mL)
MIC [19]: 1.6 µM (≈ 2.31 µg/mL)
MIC [10]: 6.2 µM (≈ 8.97 µg/mL)

CC[C@H](C)[C@H](NC(=O)[C@H](CC(C)C)NC(=O)[C@H](CCCCN)NC(=O)[C@H](CCCN=C(N)N)NC(=O)[C@H](Cc1ccccc1)NC(=O)[C@H](CC(C)C)NC(=O)[C@H](CO)NC(=O)[C@H](CC(C)C)NC(=O)[C@H](CC(C)C)NC(=O)[C@@H](N)CO)C(=O)N[C@H](C(N)=O)[C@@H](C)O [SLLSLFRKLIT]
MIC [20]: 12.5 µM (≈ 16.1 µg/mL)
MIC [21]: 1.56 µM (≈ 2.01 µg/mL)
MIC [22]: 1.56 µM (≈ 2.01 µg/mL)

CC(C)C[C@H](NC(=O)[C@H](CCCN=C(N)N)NC(=O)[C@@H]1CCCN1C(=O)[C@H](Cc1cnc[nH]1)NC(=O)[C@@H]1CCCN1C(=O)[C@@H]1CCCN1C(=O)[C@@H](N)CCCN=C(N)N)C(=O)O [RPPHPRL]
MIC [1]: 64 µM (≈ 55.8 µg/mL)
MIC [23]: ≥ 64 µM
MIC [24]: 64 µM (≈ 55.8 µg/mL)
MIC [25]: ≥ 64 µM
MIC [26]: ≥ 64 µM
MIC [9]: ≥ 64 µM
MIC [27]: ≥ 64 µM

CC[C@H](C)[C@H](N)C(=O)N[C@@H](C)C(=O)N[C@@H](CCCN=C(N)N)C(=O)N[C@@H](CCCN=C(N)N)C(=O)N[C@@H](CC(N)=O)C(=O)N[C@@H](CC(C)C)C(=O)N[C@@H](CS)C(=O)N[C@@H](C)C(=O)N[C@@H](CO)C(=O)N[C@@H](CC(C)C)C(=O)N[C@@H](CCCN=C(N)N)C(=O)N[C@@H](C)C(=O)N[C@@H](CCCN=C(N)N)C(=O)N[C@@H](Cc1cnc[nH]1)C(=O)N[C@H](C(=O)N[C@H](C(=O)N1CCC[C@H]1C(=O)N[C@@H](CCC(N)=O)C(=O)N[C@@H](CS)C(=O)N[C@@H](CCCCN)C(=O)N[C@@H](CCCCN)C(=O)N[C@@H](Cc1ccccc1)C(=O)NCC(=O)N[C@@H](CCCN=C(N)N)C(=O)N[C@@H](CCCN=C(N)N)C(N)=O)[C@@H](C)CC)[C@@H](C)O [IARRNLCASLRARHTIPQCKKFGRR]
MIC [28]: 8 µM (≈ 23.6 µg/mL)
MIC [29]: 16 µM (≈ 47.2 µg/mL)
MIC [6]: 8 µM (≈ 23.6 µg/mL)

CC[C@H](C)[C@H](NC(=O)[C@H](Cc1ccc(O)cc1)NC(=O)[C@@H](NC(=O)[C@@H]1CCCN1C(=O)[C@@H](N)CCCN=C(N)N)C(C)C)C(=O)N1CCC[C@H]1C(=O)N[C@@H](CCC(N)=O)C(=O)N1CCC[C@H]1C(=O)N[C@@H](CCCN=C(N)N)C(=O)N1CCC[C@H]1C(=O)N1CCC[C@H]1C(=O)N[C@@H](Cc1cnc[nH]1)C(=O)N1CCC[C@H]1C(=O)N[C@@H](CCCN=C(N)N)C(=O)N[C@@H](CC(C)C)C(=O)O [RPVYIPQPRPPHPRL]
MIC [1]: 64 µM (≈ 117 µg/mL)
MIC [23]: ≥ 64 µM
MIC [24]: 16 µM (≈ 29.2 µg/mL)
MIC [25]: ≥ 64 µM
MIC [26]: ≥ 64 µM
MIC [9]: ≥ 64 µM
MIC [27]: 0.5 µM (≈ 0.912 µg/mL)

CC[C@H](C)[C@H](N)C(=O)N[C@@H](C)C(=O)N[C@@H](CCCN=C(N)N)C(=O)N[C@@H](CCCN=C(N)N)C(=O)N[C@@H](C)C(=O)N[C@@H](CC(C)C)C(=O)N[C@@H](CCCCN)C(=O)N[C@@H](CCCCN)C(=O)N[C@@H](CO)C(=O)N[C@@H](CC(C)C)C(=O)N[C@@H](CCCN=C(N)N)C(=O)N[C@@H](C)C(=O)N[C@@H](CCCN=C(N)N)C(=O)N[C@@H](Cc1cnc[nH]1)C(=O)N[C@H](C(=O)N[C@H](C(=O)N1CCC[C@H]1C(=O)N[C@@H](CCC(N)=O)C(=O)N[C@@H](CS)C(=O)N[C@@H](CCCCN)C(=O)N[C@@H](CCCCN)C(=O)N[C@@H](Cc1ccccc1)C(=O)NCC(=O)N[C@@H](CCCN=C(N)N)C(=O)N[C@@H](CCCN=C(N)N)C(N)=O)[C@@H](C)CC)[C@@H](C)O [IARRALKKSLRARHTIPQCKKFGRR]
MIC [28]: 4 µM (≈ 12 µg/mL)
MIC [29]: 4 µM (≈ 12 µg/mL)
MIC [6]: 8 µM (≈ 23.9 µg/mL)

NC(N)=NCCC[C@H](NC(=O)[C@H](CCCN=C(N)N)NC(=O)[C@H](CCCN=C(N)N)NC(=O)[C@H](CCCN=C(N)N)NC(=O)[C@H](CCCN=C(N)N)NC(=O)[C@H](CCCN=C(N)N)NC(=O)[C@H](CCCN=C(N)N)NC(=O)[C@H](CCCN=C(N)N)NC(=O)[C@H](Cc1c[nH]c2ccccc12)NC(=O)[C@H](Cc1c[nH]c2ccccc12)NC(=O)[C@H](Cc1c[nH]c2ccccc12)NC(=O)[C@@H](N)Cc1c[nH]c2ccccc12)C(=O)O [WWWWRRRRRRRR]
MIC [1]: > 31.8 µM
MIC [25]: 0.124 µM (≈ 0.25 µg/mL)
MIC [30]: 31.8 µM (≈ 64 µg/mL)
MIC [7]: 4.47 µM (≈ 9 µg/mL)

CC[C@H](C)[C@H](NC(=O)CN)C(=O)N[C@@H](CC(C)C)C(=O)N[C@@H](CO)C(=O)N[C@@H](CO)C(=O)N[C@@H](CC(C)C)C(=O)N[C@@H](Cc1c[nH]c2ccccc12)C(=O)N[C@@H](CCCCN)C(=O)N[C@@H](CCCCN)C(=O)N[C@@H](CC(C)C)C(=O)N[C@@H](CCCCN)C(=O)N[C@@H](CCCCN)C(=O)N[C@H](C(=O)N[C@H](C(=O)N[C@@H](C)C(=O)N[C@@H](CCCCN)C(N)=O)[C@@H](C)CC)[C@@H](C)CC [GILSSLWKKLKKIIAK]
MIC [1]: 8.8 µM (≈ 16.1 µg/mL)
MIC [2]: 11 µM (≈ 20.1 µg/mL)
MIC [3]: 3.4 µM (≈ 6.21 µg/mL)
MIC [4]: 7 µM (≈ 12.8 µg/mL)
MIC [5]: 2 µM (≈ 3.65 µg/mL)
MIC [6]: 5.3 µM (≈ 9.67 µg/mL)
MIC [7]: 5 µM (≈ 9.13 µg/mL)
MIC [8]: 3 µM (≈ 5.48 µg/mL)
MIC [9]: 2 µM (≈ 3.65 µg/mL)
MIC [10]: 5.3 µM (≈ 9.67 µg/mL)

CC[C@H](C)[C@H](N)C(=O)N[C@@H](C)C(=O)N[C@@H](CCCN=C(N)N)C(=O)N[C@@H](CCCN=C(N)N)C(=O)N[C@@H](C)C(=O)N[C@@H](CC(C)C)C(=O)N[C@@H](CCCCN)C(=O)N[C@@H](CCCCN)C(=O)N[C@@H](C)C(=O)N[C@@H](CCCCN)C(=O)N[C@@H](CCCN=C(N)N)C(=O)N[C@@H](C)C(=O)N[C@@H](C)C(=O)N[C@@H](Cc1cnc[nH]1)C(=O)N[C@H](C(=O)N[C@H](C(=O)N1CCC[C@H]1C(=O)N[C@@H](CCC(N)=O)C(=O)N[C@@H](CS)C(=O)N[C@@H](CCCCN)C(=O)N[C@@H](CCCCN)C(=O)N[C@@H](Cc1ccccc1)C(=O)NCC(=O)N[C@@H](CCCN=C(N)N)C(=O)N[C@@H](CCCN=C(N)N)C(N)=O)[C@@H](C)CC)[C@@H](C)O [IARRALKKAKRAAHTIPQCKKFGRR]
MIC [28]: 4 µM (≈ 11.6 µg/mL)
MIC [29]: 4 µM (≈ 11.6 µg/mL)
MIC [6]: 2 µM (≈ 5.81 µg/mL)
